# Patent publication US10463644B2, “Uses of sesquiterpene lactone compounds and their derivatives in drugs preparation” (ACCENDATECH, priority 2013, dated 2019)
# Read-outs that look alike come from different tables or passages of the source.
# Experiments:
# cancer stem cells = assay: Survival rate of cancer stem cells after test compound is added (flow cytometry, Annexin V-FITC/PI, clinical specimen); format: cell-based, patient; conditions: Homo sapiens, 18 h
# In short: (§1)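 Patient tumour or leukaemia cells, identified by cancer-specific stem-cell markers (CD34+/CD38+ for AML), are treated with compound for 18 hours in serum-free IMDM. Apoptosis is then measured as Annexin V-FITC/PI staining by flow cytometry.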
# normal cells = assay: Survival rate of normal cells after test compound is added (flow cytometry, Annexin V-FITC/PI); format: cell-based; conditions: 18 h
# In short: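 Mononuclear cells from fresh or cryopreserved clinical samples, isolated by Ficoll gradient and held in serum-free IMDM (1×10^6/mL), received compound for 18 h. After labelling with marker antibodies (CD34+CD38+ for AML), Annexin V-FITC and PI staining was analysed by flow cytometry.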
# [1] = test system: PGE2 secreted by synoviocyte; assay: Content of PGE2 in culture supernatant of synoviocyte of RA model rats given test compound; format: in vivo; conditions: rat RA model, dose 30 mg/kg.2d; normal control 8.34 ± 1.29, NaCl 32.44 ± 10.32
# In short: (§2)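 Values reflect mediator secretion by synoviocytes taken from arthritic rats dosed at 30 mg/kg.2d. Normal and NaCl groups served as references.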
# cancer cells = assay: Survival rate of cancer cells after test compound is added (flow cytometry, Annexin V-FITC/PI, clinical specimen); format: cell-based, patient; conditions: Homo sapiens, 18 h, read-out: Survival rate (%) All cells (Stem cells and ordinary cells)
# In short: as §1
# [2] = test system: IL-1β secreted by synoviocyte; assay: Content of IL-1β in culture supernatant of synoviocyte of RA model rats given test compound; format: in vivo; conditions: rat RA model, dose 30 mg/kg.2d; normal control 0.16 ± 0.034, NaCl 0.49 ± 0.136
# In short: as §2
# [3] = Head and neck squamous cell carcinomas
# [4] = read-out: Survival rate (%) All cells (Stem cells and ordinary cells)
# [5] = read-out: Survival rate (%) Stem cells
structure (smiles),measurement,setting,value
C=C1C(=O)O[C@@H]2[C@H]3C(C)=CC[C@@]34O[C@@]4(C)CC[C@@H]12 [Compound 50],viability at 10 µM,cancer stem cells; AML,45%
same,viability at 20 µM,cancer stem cells; AML,36%
same,viability at 10 µM,cancer stem cells; Brain glioma,63%
same,viability at 20 µM,cancer stem cells; Brain glioma,47%
same,viability at 10 µM,cancer stem cells; Brain tumor,62%
same,viability at 20 µM,cancer stem cells; Brain tumor,54%
same,viability at 10 µM,cancer stem cells; Breast cancer,64%
same,viability at 20 µM,cancer stem cells; Breast cancer,52%
same,viability at 10 µM,cancer stem cells; CLL,47%
same,viability at 20 µM,cancer stem cells; CLL,36%
same,viability at 10 µM,cancer stem cells; CML,57%
same,viability at 20 µM,cancer stem cells; CML,46%
same,viability at 10 µM,cancer stem cells; Children hepatoblastoma,42%
same,viability at 20 µM,cancer stem cells; Children hepatoblastoma,34%
same,viability at 10 µM,cancer stem cells; Colon adenocarcinoma,43%
same,viability at 20 µM,cancer stem cells; Colon adenocarcinoma,35%
same,viability at 10 µM,cancer stem cells; Colorectal cancer,64%
same,viability at 20 µM,cancer stem cells; Colorectal cancer,55%
same,viability at 10 µM,cancer stem cells; Gastric cancer,45%
same,viability at 20 µM,cancer stem cells; Gastric cancer,37%
same,viability at 10 µM,cancer stem cells; Gastrointestinal tumor,55%
same,viability at 20 µM,cancer stem cells; Gastrointestinal tumor,44%
same,viability at 10 µM,cancer stem cells; Glioma,62%
same,viability at 20 µM,cancer stem cells; Glioma,45%
same,viability at 10 µM,cancer stem cells; [3],56%
same,viability at 20 µM,cancer stem cells; [3],47%
same,viability at 10 µM,cancer stem cells; Laryngeal cancer,64%
same,viability at 20 µM,cancer stem cells; Laryngeal cancer,53%
same,viability at 10 µM,cancer stem cells; Liver cancer,53%
same,viability at 20 µM,cancer stem cells; Liver cancer,46%
same,viability at 10 µM,cancer stem cells; Lung adenocarcinoma,46%
same,viability at 20 µM,cancer stem cells; Lung adenocarcinoma,36%
same,viability at 10 µM,cancer stem cells; Lung cancer,43%
same,viability at 20 µM,cancer stem cells; Lung cancer,33%
same,viability at 10 µM,cancer stem cells; Malignant melanoma,64%
same,viability at 20 µM,cancer stem cells; Malignant melanoma,54%
same,viability at 10 µM,cancer stem cells; Nasopharynx cancer,44%
same,viability at 20 µM,cancer stem cells; Nasopharynx cancer,37%
same,viability at 10 µM,cancer stem cells; Ovarian cancer,62%
same,viability at 20 µM,cancer stem cells; Ovarian cancer,55%
same,viability at 10 µM,cancer stem cells; Pancreatic cancer,53%
same,viability at 20 µM,cancer stem cells; Pancreatic cancer,43%
same,viability at 10 µM,cancer stem cells; Prostate cancer,54%
same,viability at 20 µM,cancer stem cells; Prostate cancer,41%
same,viability at 10 µM,cancer stem cells; Retinoblastoma,54%
same,viability at 20 µM,cancer stem cells; Retinoblastoma,44%
same,viability at 10 µM,cancer stem cells; Skin cancer,57%
same,viability at 20 µM,cancer stem cells; Skin cancer,43%
same,viability at 10 µM,normal cells; [4],92%
same,viability at 10 µM,normal cells; [5],90%
same,viability at 20 µM,normal cells; [4],91%
same,viability at 20 µM,normal cells; [5],89%
same,Content of PGE2 in culture supernatant of synoviocyte (x ± s),[1],19.83 ± 1.78 ng/mL
same,viability at 10 µM,cancer cells; AML,57%
same,viability at 20 µM,cancer cells; AML,47%
same,viability at 10 µM,cancer cells; Brain glioma,74%
same,viability at 20 µM,cancer cells; Brain glioma,58%
same,viability at 10 µM,cancer cells; Brain tumor,72%
same,viability at 20 µM,cancer cells; Brain tumor,63%
same,viability at 10 µM,cancer cells; Breast cancer,75%
same,viability at 20 µM,cancer cells; Breast cancer,65%
same,viability at 10 µM,cancer cells; CLL,58%
same,viability at 20 µM,cancer cells; CLL,47%
same,viability at 10 µM,cancer cells; CML,64%
same,viability at 20 µM,cancer cells; CML,58%
same,viability at 10 µM,cancer cells; Children hepatoblastoma,55%
same,viability at 20 µM,cancer cells; Children hepatoblastoma,47%
same,viability at 10 µM,cancer cells; Colon adenocarcinoma,55%
same,viability at 20 µM,cancer cells; Colon adenocarcinoma,49%
same,viability at 10 µM,cancer cells; Colorectal cancer,76%
same,viability at 20 µM,cancer cells; Colorectal cancer,66%
same,viability at 10 µM,cancer cells; Gastric cancer,54%
same,viability at 20 µM,cancer cells; Gastric cancer,48%
same,viability at 10 µM,cancer cells; Gastrointestinal tumor,64%
same,viability at 20 µM,cancer cells; Gastrointestinal tumor,53%
same,viability at 10 µM,cancer cells; Glioma,74%
same,viability at 20 µM,cancer cells; Glioma,56%
same,viability at 10 µM,cancer cells; [3],67%
same,viability at 20 µM,cancer cells; [3],58%
same,viability at 10 µM,cancer cells; Laryngeal cancer,75%
same,viability at 20 µM,cancer cells; Laryngeal cancer,64%
same,viability at 10 µM,cancer cells; Liver cancer,66%
same,viability at 20 µM,cancer cells; Liver cancer,54%
same,viability at 10 µM,cancer cells; Lung adenocarcinoma,57%
same,viability at 20 µM,cancer cells; Lung adenocarcinoma,47%
same,viability at 10 µM,cancer cells; Lung cancer,54%
same,viability at 20 µM,cancer cells; Lung cancer,47%
same,viability at 10 µM,cancer cells; Malignant melanoma,82%
same,viability at 20 µM,cancer cells; Malignant melanoma,66%
same,viability at 10 µM,cancer cells; Nasopharynx cancer,54%
same,viability at 20 µM,cancer cells; Nasopharynx cancer,48%
same,viability at 10 µM,cancer cells; Ovarian cancer,77%
same,viability at 20 µM,cancer cells; Ovarian cancer,67%
same,viability at 10 µM,cancer cells; Pancreatic cancer,64%
same,viability at 20 µM,cancer cells; Pancreatic cancer,49%
same,viability at 10 µM,cancer cells; Prostate cancer,66%
same,viability at 20 µM,cancer cells; Prostate cancer,54%
same,viability at 10 µM,cancer cells; Retinoblastoma,65%
same,viability at 20 µM,cancer cells; Retinoblastoma,53%
same,viability at 10 µM,cancer cells; Skin cancer,66%
same,viability at 20 µM,cancer cells; Skin cancer,58%
same,Content of IL-1β in culture supernatant of synoviocyte (x ± s),[2],0.34 ± 0.061 ng/mL
